# From patent US4863900A (priority 1987, dated 1989)
# Experiments:
# HSV1 [1] = assay: Virus inactivation, surviving virus by plaque assay on VERO cells; settings: for inactivation of HSV1, temperature effect: 1 hour
# HSV2 = assay: as above; settings: for Percent Survivors HSV-2: 1 hr at 37° C.
# HSV1 [2] = assay: Injection of poly-L-histidine treated HSV1 into mice, observed 14 days; format: in vivo, Balb/C mice; settings: HSV1 incubated with 100 μg His-75 in 1 ml, pH 6.0, one hour at 37° C., 50 μl in lower left jaw
# Excerpt: 3. All animals were observed daily for 14 days.
# [3] = tested on: influenza, Newcastle disease, tobacco mosaic, poliomyelitis, and mumps viruses; settings: cited from earlier work
# [4] = pH 5, 100 μg/ml, 1 hour at 37° C.
# [5] = pH 6, 100 μg/ml, 1 hour at 37° C.
# [6] = pH 7, 100 μg/ml, 1 hour at 37° C.
# [7] = pH 8, 100 μg/ml, 1 hour at 37° C.
# [8] = 100 μg/ml at 37° C., pH 6.0, samples at 1, 15, 30, 45 and 60 minutes
substance,measurement,setting,value
poly-L-Histidine [His-64],inactivation of HSV1,HSV1 [1]; [4],inactivated
same,inactivation of HSV1,HSV1 [1]; [5],inactivated
same,inactivation of HSV1,HSV1 [1]; [6],Some minor inactivation
same,inactivation of HSV1,HSV1 [1]; [7],none
poly-L-Histidine [His-75],Percent Survivors HSV-1,"HSV1 [1]; 1 μg/ml, pH 6.0, 1 hr at 37° C.",83%
same,Percent Survivors HSV-1,"HSV1 [1]; 10 μg/ml, pH 6.0, 1 hr at 37° C.",64%
same,length of time required for inactivation of HSV1,HSV1 [1]; [8],inactivated by as little as one minute of exposure
same,Percent Survivors HSV-1,"HSV1 [1]; 100 μg/ml, pH 6.0, 30 minutes, 37° C., not shifted",0%
same,Percent Survivors HSV-1,"HSV1 [1]; 100 μg/ml, pH 6.0, 60 minutes, 37° C., not shifted",0%
same,"inactivation of HSV1, temperature effect","HSV1 [1]; 4° C., 100 μg/ml, pH 6.0",a small amount of HSV1 survived
same,"inactivation of HSV1, temperature effect","HSV1 [1]; 22° C. and 37° C., 100 μg/ml, pH 6.0",inactivation was almost complete
same,ID50 (amount of drug required to inactivate 50% of the virus),"HSV1 [1]; HSV1, pH 6.0, 1 hour at 37° C., linear regression analysis",44.38 µg/mL
same,inactivation of HSV1,HSV1 [1]; [4],efficiently inactivated
same,inactivation of HSV1,HSV1 [1]; [5],efficiently inactivated
same,inactivation of HSV1,HSV1 [1]; [6],not
same,inactivation of HSV,HSV1 [1]; pH 7.2,does not inactivate
same,inactivation of HSV1,HSV1 [1]; [7],not
same,Percent Survivors HSV-2,"HSV2; 1 μg/ml, pH 6.0",62%
same,Percent Survivors HSV-2,"HSV2; 10 μg/ml, pH 6.0",84%
same,length of time required for inactivation of HSV2,HSV2; [8],inactivated by as little as one minute of exposure
same,"inactivation of HSV2, temperature effect","HSV2; 4° C., 22° C. and 37° C., 100 μg/ml, pH 6.0, 1 hour",inactivation was almost complete
same,ID50 (amount of drug required to inactivate 50% of the virus),"HSV2; HSV2, pH 6.0, 1 hour at 37° C., linear regression analysis",41.15 µg/mL
same,inactivation of HSV2,HSV2; [4],inactivated
same,inactivation of HSV2,HSV2; [5],inactivated
same,inactivation of HSV2,HSV2; [6],not
same,inactivation of HSV2,HSV2; [7],not and Some small amount of inactivation
same,health of mice injected with poly-L-histidine treated HSV1,HSV1 [2]; listed as Poly-L-histidine,failed to cause disease
same,health of mice injected with poly-L-histidine treated HSV1,HSV1 [2]; listed as poly-L-histidine,remained healthy throughout the study
poly-L-arginine,inhibitory activity against viruses,[3],inhibitory activity
poly-L-lysine,inhibitory activity against viruses,[3],inhibitory activity
